Assay results as given in article PMC5101207, “The Oxidosqualene Cyclase from the Oomycete Saprolegnia parasitica Synthesizes Lanosterol as a Single Product” (Frontiers in Microbiology, 2016).

Molecular target: T1, SpLASA (Saprolegnia parasitica, UniProt A0A067BWL7)
T1 construct: gene SPRG_11783; full length, 805 residues (2415 bp amplicon from mycelium cDNA), C-terminal His6 tag (pET-DEST42), E. coli BL21 (DE3), about 91 kDa; not the truncated paralogue SpLASB (SPRG_17895, 472 residues)
T1 sequence (A0A067BWL7 1-805): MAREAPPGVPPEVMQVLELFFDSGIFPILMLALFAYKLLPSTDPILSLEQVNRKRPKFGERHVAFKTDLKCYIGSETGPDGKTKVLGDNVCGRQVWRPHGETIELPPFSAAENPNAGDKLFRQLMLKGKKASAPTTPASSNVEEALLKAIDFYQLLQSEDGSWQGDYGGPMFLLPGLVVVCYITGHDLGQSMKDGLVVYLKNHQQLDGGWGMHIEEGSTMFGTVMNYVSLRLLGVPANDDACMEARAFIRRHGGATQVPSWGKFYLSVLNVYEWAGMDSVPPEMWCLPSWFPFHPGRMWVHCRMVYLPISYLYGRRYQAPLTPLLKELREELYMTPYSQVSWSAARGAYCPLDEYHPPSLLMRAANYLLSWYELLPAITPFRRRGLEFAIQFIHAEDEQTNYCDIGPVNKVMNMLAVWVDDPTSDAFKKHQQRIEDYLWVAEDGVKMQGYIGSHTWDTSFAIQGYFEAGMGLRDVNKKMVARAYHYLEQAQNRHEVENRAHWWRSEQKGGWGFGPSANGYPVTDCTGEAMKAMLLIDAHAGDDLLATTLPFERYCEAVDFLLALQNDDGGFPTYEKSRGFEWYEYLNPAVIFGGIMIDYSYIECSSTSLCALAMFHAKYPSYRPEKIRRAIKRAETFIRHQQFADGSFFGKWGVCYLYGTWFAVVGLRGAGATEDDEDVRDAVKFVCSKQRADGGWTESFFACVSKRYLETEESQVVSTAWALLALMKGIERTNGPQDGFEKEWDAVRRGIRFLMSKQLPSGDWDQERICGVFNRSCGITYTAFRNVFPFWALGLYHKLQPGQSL
Experiment: GC-MS of silylated sterols after incubation with purified enzyme
Assay type: biochemical
Conditions: 50 mM sodium phosphate pH 7.4, 25°C, 24 h; 10.7 μg substrate, 37.5-112.5 μg protein

Structure (SMILES)	GC-MS of silylated sterols after incubation with purified enzyme
CC(C)=CCC[C@@H](C)[C@H]1CC[C@@]2(C)C3=C(CC[C@]12C)[C@@]1(C)CC[C@H](O)C(C)(C)[C@@H]1CC3 [lanosterol]	the proportion of LA increased linearly with increasing protein concentration
CC(C)=CCC/C(C)=C/CC/C(C)=C/CC/C=C(\C)CC/C=C(\C)CC[C@@H]1OC1(C)C [2,3-oxidosqualene]	These experiments confirmed the specific conversion of OS into LA.
